SMILES strings stand for the structures.

For data set [1] the following is noted: cited from earlier work.
For data set [2] the following is noted: healthy male subjects, single oral dose of 60 mg 14C‐DFZ; cited from earlier work.
The test system of the next data set is CYP3A4. Briefly: in vitro. As to conditions: human.
The subject of the next data set is CYP2B6. In words: in vitro. It counts as in vitro ADME, human. As to conditions: human, 10 µM.
Another data set deals with CYP1A2. Briefly: in vitro. In kind it is in vitro ADME, human. As to conditions: human.
The mark [3] stands for this setting: CYP1A2 enzyme activity fold induction, donor one.
[4] abbreviates: CYP1A2 enzyme activity fold induction, donor three.
[5] abbreviates: CYP1A2 enzyme activity fold induction, donor two.
The mark [6] stands for this setting: CYP1A2 mRNA fold induction, donor one.
Where [7] appears, read: CYP1A2 mRNA fold induction, donor three.
The mark [8] stands for this setting: CYP1A2 mRNA fold induction, donor two.

Turning to `CC1=N[C@]2(C(=O)CO)[C@@H](C[C@H]3[C@@H]4CCC5=CC(=O)C=C[C@]5(C)[C@H]4[C@@H](O)C[C@@]32C)O1` [21‐desDFZ, 21‐desacetyl deflazacort], in data set [1], the “protein binding in human plasma” value is listed as “about 40%”. The “share of 0–24 h plasma levels of total radioactivity” value in data set [2] is recorded as 33%.
As to `COc1c(N2CCNC(C)C2)c(F)cc2c(=O)c(C(=O)O)cn(C3CC3)c12` (centres unmarked) [Gatifloxacin, reference compound], the fold induction at 48 h, 10 µM in the data set on CYP3A4 (CYP3A4 enzyme activity fold induction, donor one) is 0.881; in the data set with CYP3A4 (CYP3A4 enzyme activity fold induction, donor three), 1.44; in the data set on CYP3A4 (CYP3A4 enzyme activity fold induction, donor two), 0.861; with CYP3A4 (CYP3A4 mRNA fold induction, donor one) it was 0.612; in the data set on CYP3A4 (CYP3A4 mRNA fold induction, donor three), 1.18; with CYP3A4 (CYP3A4 mRNA fold induction, donor two), 0.591. Further, the fold induction at 48 h, 10 µM is 0.719 in the data set on CYP2B6 (CYP2B6 enzyme activity fold induction, donor one); 0.875 in the data set on CYP2B6 (CYP2B6 enzyme activity fold induction, donor three); 1.05 with CYP2B6 (CYP2B6 enzyme activity fold induction, donor two); 0.965 with CYP2B6 (CYP2B6 mRNA fold induction, donor one); 0.989 in the data set with CYP2B6 (CYP2B6 mRNA fold induction, donor three); 0.685 in the data set with CYP2B6 (CYP2B6 mRNA fold induction, donor two). In addition, the fold induction at 48 h, 10 µM in the data set with CYP1A2 (setting [3]) turned out to be 0.744; in the data set on CYP1A2 (setting [4]), 0.996; with CYP1A2 (setting [5]), 0.805; in the data set on CYP1A2 (setting [6]) it was 0.941; with CYP1A2 (setting [7]) it was 0.898; with CYP1A2 (setting [8]) it was 1.12.
Turning to `COc1ccc2[nH]c([S+]([O-])Cc3ncc(C)c(OC)c3C)nc2c1` (centres unmarked) [Omeprazole, reference compound], the fold induction at 48 h, 100 µM in the data set with CYP1A2 (setting [3]) came to 3.55; with CYP1A2 (setting [4]) it was 8.36; in the data set with CYP1A2 (setting [5]), 5.48; in the data set on CYP1A2 (setting [6]) it was 39.6; in the data set with CYP1A2 (setting [7]) it was 40.5; in the data set on CYP1A2 (setting [8]), 34.8.

(Values after publication PMC7982320 (Pharmacology Research & Perspectives, 2021).)
